Assay results: patent US20050222158A1, “Method of treating migraine headaches using calcitonin gene related peptide mimetics” (priority 2004, published 2005)

Target: T1, human CGRP receptor (Homo sapiens, UniProt O60894+Q16602)
T1 construct: SK-N-MC cells that endogenously express the human CGRP receptor; endogenous in cells; host or cells: SK-N-MC cells (membrane homogenates)
Assay: [125I]-CGRP radioligand binding assay, SK-N-MC cell homogenates
Settings: 40 pM [125I]-CGRP, room temperature
Experimental: Tissue culture. SK-N-MC cells were grown at 37° C. in 5% CO2 as a monolayer in medium consisting of MEM with Earle's salts and L-glutamine (Gibco) supplemented with 10% fetal bovine serum (Gibco). Radioligand binding assays. Cells were rinsed twice with phosphate-buffered saline (155 mM NaCl, 3.3 mM Na2HPO4, 1.1 mM KH2PO4, pH 7.4), and incubated for 5-10 min. at 4° C. in hypotonic lysis buffer consisting of 10 mM Tris (pH 7.4) and 5 mM EDTA. Cells were transferred from plates to polypropylene tubes (16×100 mm), homogenized and centrifuged at 32,000×g for 30 min. Pellets were resuspended in buffer consisting of 50 mM Tris (pH 7.4) and 1 mM EDTA, homogenized, and centrifuged again at 32,000×g for 30 min. Pellets were resuspended in 100 mM Tris-Cl pH 7.5, 10 mM MgCl2, 0.1% mammalian protease inhibitor cocktail (Sigma) and stored at −80° C. until needed. On the day of an experiment, homogenates were thawed and homogenized again. Binding of [^125I]-CGRP (NEN) was carried out in buffer containing 50 mM Tris-Cl pH 7.5, 5 mM MgCl2, 0.5% BSA. Homogenates (3.5 μg protein/well) were incubated with competitor compounds (solubilized in 100% DMSO at 100× their final assay concentrations) for one hour at room temperature. Then [^125I]-CGRP was added (40 pM final concentration) and the reaction incubated for one additional hour at room temperature. […]

T1 sequence (Q16602 23-461): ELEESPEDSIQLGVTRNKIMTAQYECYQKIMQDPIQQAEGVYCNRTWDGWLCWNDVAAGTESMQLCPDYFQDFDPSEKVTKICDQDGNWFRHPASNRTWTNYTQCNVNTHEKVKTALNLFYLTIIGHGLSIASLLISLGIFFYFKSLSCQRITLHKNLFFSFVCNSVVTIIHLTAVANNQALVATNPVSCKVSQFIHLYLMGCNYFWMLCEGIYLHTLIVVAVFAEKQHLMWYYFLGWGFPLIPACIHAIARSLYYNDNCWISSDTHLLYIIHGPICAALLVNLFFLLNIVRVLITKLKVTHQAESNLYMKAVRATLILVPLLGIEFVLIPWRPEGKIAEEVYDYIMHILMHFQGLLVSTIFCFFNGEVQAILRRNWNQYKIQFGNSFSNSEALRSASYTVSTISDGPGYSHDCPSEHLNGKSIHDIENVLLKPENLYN
T1 sequence (O60894 27-148): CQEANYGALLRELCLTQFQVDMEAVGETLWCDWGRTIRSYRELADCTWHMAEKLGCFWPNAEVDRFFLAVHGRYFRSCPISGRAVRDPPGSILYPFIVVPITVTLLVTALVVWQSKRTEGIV

IC50: 5160 nM
SMILES: CC(=O)c1ccc(NC(=O)N2CCC(=O)N3[C@@H]2CN(CCc2cccc(F)c2)C(=O)[C@@H]3CC(=O)OC2[C@H]3C[C@@H]4C[C@@H](C[C@H]2C4)C3)cc1 (stereo partly drawn) [Compound 29, {1-(4-Acetyl-phenylcarbamoyl)-(6S,9aS)-8-[2-(3-fluoro-phenyl)-ethyl]-4,7-dioxo-octahydro-pyrazino[1,2a]pyrimidin-6-yl}-acetic acid adamantan-2-yl ester]
